Laboratory results reported in patent publication US10588317B2, “Isoxazoline-substituted benzamides and analogues as insecticides” (priority 2015, dated 2020).

What was measured:
Assay type in all cases: in vivo
Spodoptera littoralis [1] = assay: Spodoptera littoralis (Egyptian cotton leaf worm), sprayed cotton leaf discs; conditions: foliar, 72 h, application rate 200 ppm, L1 larvae, 3 days after infestation, read-out: control (mortality, anti-feeding effect, growth inhibition)
Outline: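 Cotton leaf discs on agar sprayed with aqueous test solutions made from 10'000 ppm DMSO stock; after drying, infested with five L1 larvae. Mortality, anti-feeding and growth inhibition scored versus untreated samples 3 days after infestation; control counted when any category exceeds untreated.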

Diabrotica balteata = Diabrotica balteata (corn root worm), sprayed maize sprouts; conditions: 96 h, application rate 200 ppm, L2 larvae, 4 days after infestation, read-out: effect in at least one of the two categories (mortality or growth inhibition)
Outline: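 Maize sprouts on agar sprayed with aqueous dilutions of DMSO stocks, dried, then infested with L2 larvae (6–10 per well). Mortality and growth inhibition scored against untreated controls 4 days after infestation, at 200 ppm application rate.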

Thrips tabaci = Thrips tabaci (onion thrips): feeding/contact activity; conditions: 144 h, application rate 200 ppm, Thrips population of mixed ages, 6 days after infestation, read-out: mortality
Description: Sunflower leaf discs were placed on agar in 24-well microtiter plates and sprayed with aqueous test solutions prepared from 10'000 ppm DMSO stock solutions. After drying the leaf discs were infested with a Thrips population of mixed ages. The samples were assessed for mortality 6 days after infestation.

Euschistus heros = Euschistus heros (neotropical brown stink bug), sprayed soybean leaves; conditions: 120 h, application rate 200 ppm, N2 nymphs, 5 days after infestation, read-out: effect in at least one of the two categories (mortality or growth inhibition)
Outline: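 Soybean leaves on agar sprayed with aqueous dilutions of DMSO stocks, dried, then infested with N2 nymphs. Mortality and growth inhibition scored against untreated samples 5 days after infestation; application rate 200 ppm.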

Tetranychus urticae = Tetranychus urticae (two-spotted spider mite): feeding/contact activity; conditions: 192 h, application rate 200 ppm, mixed population (mobile stages), 8 days after infestation, read-out: mortality
Description: Bean leaf discs on agar in 24-well microtiter plates were sprayed with aqueous test solutions prepared from 10'000 ppm DMSO stock solutions. After drying the leaf discs were infested with a mite population of mixed ages. The samples were assessed for mortality on mixed population (mobile stages) 8 days after infestation.

Myzus persicae = Myzus persicae (green peach aphid): feeding/contact activity; conditions: 144 h, application rate 200 ppm, aphid population of mixed ages, 6 days after infestation, read-out: mortality
Description: Sunflower leaf discs were placed onto agar in a 24-well microtiter plate and sprayed with aqueous test solutions prepared from 10'000 ppm DMSO stock solutions. After drying, the leaf discs were infested with an aphid population of mixed ages. The samples were assessed for mortality 6 days after infestation.

Plutella xylostella = Plutella xylostella (diamond back moth), artificial diet; conditions: 120 h, application rate 200 ppm, L2 larvae, 5 days after infestation, read-out: effect in at least one of the two categories (mortality or growth inhibition)
Outline: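 Artificial diet in 24-well plates treated with aqueous test solutions made from 10'000 ppm DMSO stocks, dried, then infested with L2 larvae (10 to 15 per well). Mortality and growth inhibition scored against untreated samples 5 days after infestation; activity cut-off at least 80% in either category at 200 ppm.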

Spodoptera littoralis [2] = assay: Spodoptera littoralis (Egyptian cotton leaf worm), uptake by lettuce roots from agar; conditions: 144 h, read-out: effect in at least one of the three categories (mortality, anti-feeding, or growth inhibition);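 note: 12.5 ppm test rate in agar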
Outline: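 Compound from 10'000 ppm DMSO stocks was mixed into agar, and lettuce grew on it for 7 days to take it up via roots. Cut leaves were infested with Spodoptera eggs; mortality, anti-feedant effect and growth inhibition scored 6 days later versus untreated samples.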

CNS(=O)(=O)N1CC(NC(=O)c2ccc(C3=NO[C@@](c4cc(Cl)c(F)c(Cl)c4)(C(F)(F)F)C3)cc2C)CO1 (some centres unmarked) [Compound A70]
≥ 80%: mortality at 200 ppm (Spodoptera littoralis [1]) | percent effect (mortality or growth inhibition) at 200 ppm (Diabrotica balteata) | mortality at 200 ppm (Thrips tabaci) | percent effect (mortality or growth inhibition) at 200 ppm (Euschistus heros) | mortality at 200 ppm (Tetranychus urticae) | mortality at 200 ppm (Myzus persicae) | percent effect (mortality or growth inhibition) at 200 ppm (Plutella xylostella) | percent control (mortality, anti-feedant effect or growth inhibition) at 12.5 ppm (Spodoptera littoralis [2])

CS(=O)(=O)N1C[C@@H](NC(=O)c2ccc(C3=NO[C@@](c4cc(Cl)c(Cl)c(Cl)c4)(C(F)(F)F)C3)cc2Cl)CO1 [Compound A145]
≥ 80%: mortality at 200 ppm (Spodoptera littoralis [1]) | percent effect (mortality or growth inhibition) at 200 ppm (Diabrotica balteata) | mortality at 200 ppm (Thrips tabaci) | percent effect (mortality or growth inhibition) at 200 ppm (Euschistus heros) | mortality at 200 ppm (Tetranychus urticae) | mortality at 200 ppm (Myzus persicae) | percent effect (mortality or growth inhibition) at 200 ppm (Plutella xylostella) | percent control (mortality, anti-feedant effect or growth inhibition) at 12.5 ppm (Spodoptera littoralis [2])

CCS(=O)(=O)N1C[C@@H](NC(=O)c2ccc(C3=NO[C@@](c4cc(Cl)c(Cl)c(Cl)c4)(C(F)(F)F)C3)cc2Cl)CO1 [Compound A147, 2-chloro-N-[(4R)-2-ethylsulfonylisoxazolidin-4-yl]-4-[(5S)-5-(3,4,5-trichlorophenyl)-5-(trifluoromethyl)-4H-isoxazol-3-yl]benzamide]
≥ 80%: mortality at 200 ppm (Spodoptera littoralis [1]) | percent effect (mortality or growth inhibition) at 200 ppm (Diabrotica balteata) | mortality at 200 ppm (Thrips tabaci) | percent effect (mortality or growth inhibition) at 200 ppm (Euschistus heros) | mortality at 200 ppm (Tetranychus urticae) | mortality at 200 ppm (Myzus persicae) | percent effect (mortality or growth inhibition) at 200 ppm (Plutella xylostella) | percent control (mortality, anti-feedant effect or growth inhibition) at 12.5 ppm (Spodoptera littoralis [2])

CS(=O)(=O)N1C[C@@H](NC(=O)c2ccc(C3=NO[C@@](c4cc(Cl)cc(C(F)(F)F)c4)(C(F)(F)F)C3)cc2Cl)CO1 [Compound A123]
≥ 80%: mortality at 200 ppm (Spodoptera littoralis [1]) | percent effect (mortality or growth inhibition) at 200 ppm (Diabrotica balteata) | mortality at 200 ppm (Thrips tabaci) | percent effect (mortality or growth inhibition) at 200 ppm (Euschistus heros) | mortality at 200 ppm (Tetranychus urticae) | mortality at 200 ppm (Myzus persicae) | percent effect (mortality or growth inhibition) at 200 ppm (Plutella xylostella) | percent control (mortality, anti-feedant effect or growth inhibition) at 12.5 ppm (Spodoptera littoralis [2])

Cc1cc(C2=NO[C@@](c3cc(Cl)c(Cl)c(Cl)c3)(C(F)(F)F)C2)ccc1C(=O)N[C@H]1CON(S(N)(=O)=O)C1 [Compound A68, 2-methyl-N-[(4R)-2-sulfamoylisoxazolidin-4-yl]-4-[(5S)-5-(3,4,5-trichlorophenyl)-5-(trifluoromethyl)-4H-isoxazol-3-yl]benzamide]
≥ 80%: mortality at 200 ppm (Spodoptera littoralis [1]) | percent effect (mortality or growth inhibition) at 200 ppm (Diabrotica balteata) | mortality at 200 ppm (Thrips tabaci) | percent effect (mortality or growth inhibition) at 200 ppm (Euschistus heros) | mortality at 200 ppm (Tetranychus urticae) | mortality at 200 ppm (Myzus persicae) | percent effect (mortality or growth inhibition) at 200 ppm (Plutella xylostella) | percent control (mortality, anti-feedant effect or growth inhibition) at 12.5 ppm (Spodoptera littoralis [2])

CCN(C)S(=O)(=O)N1C[C@@H](NC(=O)c2ccc(C3=NO[C@@](c4cc(Cl)c(F)c(Cl)c4)(C(F)(F)F)C3)cc2Cl)CO1 [Compound A131, 2-chloro-4-[(5S)-5-(3,5-dichloro-4-fluoro-phenyl)-5-(trifluoromethyl)-4H-isoxazol-3-yl]-N-[(4R)-2-[ethyl(methyl)sulfamoyl]isoxazolidin-4-yl]benzamide]
≥ 80%: mortality at 200 ppm (Spodoptera littoralis [1]) | percent effect (mortality or growth inhibition) at 200 ppm (Diabrotica balteata) | mortality at 200 ppm (Thrips tabaci) | percent effect (mortality or growth inhibition) at 200 ppm (Euschistus heros) | mortality at 200 ppm (Tetranychus urticae) | mortality at 200 ppm (Myzus persicae) | percent effect (mortality or growth inhibition) at 200 ppm (Plutella xylostella) | percent control (mortality, anti-feedant effect or growth inhibition) at 12.5 ppm (Spodoptera littoralis [2])

CCN(C)S(=O)(=O)N1C[C@@H](NC(=O)c2ccc(C3=NO[C@@](c4cc(Cl)c(Cl)c(Cl)c4)(C(F)(F)F)C3)cc2Cl)CO1 [Compound A132, 2-chloro-N-[(4R)-2-[ethyl(methyl)sulfamoyl]isoxazolidin-4-yl]-4-[(5S)-5-(3,4,5-trichlorophenyl)-5-(trifluoromethyl)-4H-isoxazol-3-yl]benzamide]
≥ 80%: mortality at 200 ppm (Spodoptera littoralis [1]) | percent effect (mortality or growth inhibition) at 200 ppm (Diabrotica balteata) | mortality at 200 ppm (Thrips tabaci) | percent effect (mortality or growth inhibition) at 200 ppm (Euschistus heros) | mortality at 200 ppm (Tetranychus urticae) | mortality at 200 ppm (Myzus persicae) | percent effect (mortality or growth inhibition) at 200 ppm (Plutella xylostella) | percent control (mortality, anti-feedant effect or growth inhibition) at 12.5 ppm (Spodoptera littoralis [2])

CNS(=O)(=O)N1CC(NC(=O)c2ccc(C3=NO[C@@](c4cc(Cl)c(Cl)c(Cl)c4)(C(F)(F)F)C3)cc2C)CO1 (stereo partly drawn) [Compound A69, 2-methyl-N-[2-(methylsulfamoyl)isoxazolidin-4-yl]-4-[(5S)-5-(3,4,5-trichlorophenyl)-5-(trifluoromethyl)-4H-isoxazol-3-yl]benzamide]
≥ 80%: mortality at 200 ppm (Spodoptera littoralis [1]) | percent effect (mortality or growth inhibition) at 200 ppm (Diabrotica balteata) | mortality at 200 ppm (Thrips tabaci) | percent effect (mortality or growth inhibition) at 200 ppm (Euschistus heros) | mortality at 200 ppm (Tetranychus urticae) | mortality at 200 ppm (Myzus persicae) | percent effect (mortality or growth inhibition) at 200 ppm (Plutella xylostella) | percent control (mortality, anti-feedant effect or growth inhibition) at 12.5 ppm (Spodoptera littoralis [2])

CCNS(=O)(=O)N1C[C@@H](NC(=O)c2ccc(C3=NO[C@@](c4cc(Cl)cc(C(F)(F)F)c4)(C(F)(F)F)C3)cc2Cl)CO1 [Compound A128]
≥ 80%: mortality at 200 ppm (Spodoptera littoralis [1]) | percent effect (mortality or growth inhibition) at 200 ppm (Diabrotica balteata) | mortality at 200 ppm (Thrips tabaci) | percent effect (mortality or growth inhibition) at 200 ppm (Euschistus heros) | mortality at 200 ppm (Tetranychus urticae) | mortality at 200 ppm (Myzus persicae) | percent effect (mortality or growth inhibition) at 200 ppm (Plutella xylostella) | percent control (mortality, anti-feedant effect or growth inhibition) at 12.5 ppm (Spodoptera littoralis [2])

CCS(=O)(=O)N1CC(NC(=O)c2ccc(C3=NO[C@@](c4cc(Cl)cc(C(F)(F)F)c4)(C(F)(F)F)C3)cc2C)CO1 (some centres unmarked) [Compound A42]
≥ 80%: mortality at 200 ppm (Spodoptera littoralis [1]) | percent effect (mortality or growth inhibition) at 200 ppm (Diabrotica balteata) | mortality at 200 ppm (Thrips tabaci) | percent effect (mortality or growth inhibition) at 200 ppm (Euschistus heros) | mortality at 200 ppm (Tetranychus urticae) | mortality at 200 ppm (Myzus persicae) | percent effect (mortality or growth inhibition) at 200 ppm (Plutella xylostella) | percent control (mortality, anti-feedant effect or growth inhibition) at 12.5 ppm (Spodoptera littoralis [2])
